Measured values taken from PMC7070443, “New Hybrid Pyrazole and Imidazopyrazole Antinflammatory Agents Able to Reduce ROS Production in Different Biological Targets” (Molecules, 2020).

Key:
PDE4D3 [1] = biological target: T1, PDE4D3 (Homo sapiens, UniProt Q08499); experiment: PDE4 enzymatic assay (IMAP fluorescence polarisation); format: biochemical; conditions: for inhibition at 10 µM: in duplicate, read-out: inhibition of PDE4D3, preliminary test; for IC50: human recombinant enzyme
T1 construct: host or cells: Spodoptera frugiperda (Sf9), baculovirus
Description: (§1) PDE4 tests were performed by Scottish Biomedical Drug Discovery (Scottish, Biomedical Drug Discovery, Glasgow, UK) using human recombinant enzyme obtained from Spodoptera frugiperda (Sf9) cells using a baculovirus expression system (PDE enzyme at 0.5 U/mL in 20 mM Tris.HCl pH 7.4) as previously reported. IMAP technology is based on the high affinity binding of phosphate by immobilized metal coordination complexes on nanoparticles. The binding reagent complexes with phosphate groups on nucleotide monophosphate generated from cyclic nucleotides ([…]) through phosphodiesterases. With fluorescence polarisation detection, binding causes a change in the rate of the molecular motion of the phosphate bearing molecule, and results in an increase in the fluorescence polarization value observed for the fluorescent label attached to the substrate.
(§2) Title compounds 4d and 5d were solved in DMSO at 10^−2 M concentration and then diluted with water to the final suitable concentrations. All our subsequent assays were performed in 3% DMSO (final). All the compounds were tested preliminary at 10 µM concentration, in duplicate.
(§3) In all the experiments, Rolipram as reference compound (at 10 μM for PDE4B2 and 1 μM for PDE4D3) was tested at nine concentrations, in duplicate, to obtain an inhibition curve in order to validate this experiment.
(§4) Being inhibition >50%, 4d and 5d have been further tested in the same assay at five different concentrations (5 × 10^−8–10^−4 M) and IC50 values were determined by nonlinear regression analysis of the inhibition curve, using Hill equation curve fitting (Graph Pad Prism software, version 5.0a).

PDE4B2 = biological target: T2, PDE4B2 (Homo sapiens, UniProt Q07343); experiment: as above; format: biochemical; conditions: for inhibition at 10 µM: in duplicate, read-out: inhibition of PDE4B2, preliminary test; for IC50: human recombinant enzyme
T2 construct: host or cells: Spodoptera frugiperda (Sf9), baculovirus
Description: as §1, §2, §3, §4

PDE7 = experiment: Preliminary PDE selectivity evaluation; format: biochemical; conditions: 10 µM; data not shown
human platelets [2] = experiment: ROS production inhibition in thrombin-stimulated washed platelets (DCFH-DA, flow cytometry); format: cell-based; conditions: for IC50: washed human platelets, 0.1 U/mL thrombin, DCFH-DA, mean +/- SD, at least six experiments in duplicate
Description: (§5) Freshly drawn venous blood from healthy volunteers of the “Centro Trasfusionale, Ospedale San Martino” in Genoa was collected into 130 mM aqueous trisodium citrate anticoagulant solution (9:1). The donors claimed to have not taken drugs known to interfere with platelet function during two weeks prior to blood collection and gave their informed consent. Washed platelets were prepared centrifuging whole blood at 100× g for 20 min. The obtained platelet-rich plasma was then centrifuged at 1100× g for 15 min. Pellet was washed once with pH 5.2 ACD solution (75 mM trisodium citrate, 42 mM citric acid and 136 mM glucose), centrifuged at 1100× g for 15 min and then re-suspended in pH 7.4 Hepes buffer (145 mM NaCl, 5 mM KCl, 1 mM MgSO4, 10 mM glucose, 10 mM HEPES).
ROS production was quantified as previously reported by DCFH-DA, a ROS-sensitive probe that yields upon oxidation the fluorescent adduct DCF that is trapped inside the cells. Briefly, washed platelets (1.0 × 10^8/mL), pre-incubated with saline, compounds 4 or 5, for 15 min at 37 °C, were stimulated by 0.1 U/mL thrombin. Incubation was stopped by cooling samples in ice bath and then samples were immediately analyzed in a Merck Millipore Bioscience Guava easyCyte flow cytometer (Merk Millipore, Burlington, MA, USA). The reported IC50 value is the molar concentration of the compound able to obtain 50% inhibition of the […] induced by the agonist and is calculated by the percentage of inhibition that is the inhibition of the […] measured in the presence of the agent compared with that measured in a control sample containing saline, carried out under the same conditions.

human neutrophils [3] = experiment: Neutrophil chemotaxis inhibition (fMLP stimulated); format: cell-based; conditions: data not shown
PDE2 = PDE2 (Homo sapiens, UniProt O00408); experiment: Preliminary PDE selectivity evaluation; format: biochemical; conditions: 10 µM; data not shown
PDE3 = experiment: Preliminary PDE selectivity evaluation; format: biochemical; conditions: 10 µM; data not shown
[4] = Cell vitality by propidium iodide (PI) method in neutrophils; format: cell-based; conditions: human, human neutrophils, PI method
Description: (§6) In the same test, cell vitality in presence of 4d (10 µM) was assessed by propidium iodide (PI) method at the end of the incubation time. In detail, in the same tubes we added PI staining solution (10 μg/mL, Invitrogen ThermoFisher Scientific, Waltham, MA, USA) to detect dead cells. PI is excited at 488 nm and, emits at a maximum wavelength of 617 nm. Because of these spectral characteristics, PI can be used in combination with other fluorochromes excited at 488 nm such as fluorescein isothiocyanate (FITC). Auto-fluorescence levels of sample were measured and subtracted from each analysis. Data were expressed as mean fluorescence intensity ((MFI), compared with the expression on cells stimulated with control medium alone (defined as 100%)).

human neutrophils [5] = experiment: as above; format: cell-based; conditions: 10 µM
Description: as §6

PDE5 = PDE5 (Homo sapiens, UniProt O76074); experiment: Preliminary PDE selectivity evaluation; format: biochemical; conditions: 10 µM; data not shown
human platelets [6] = experiment: Platelet aggregation inhibition (Born's method, thrombin-stimulated washed platelets); format: cell-based; conditions: Platelet, 0.1 U/mL thrombin, mean +/- SD, at least six experiments in duplicate
Description: as §5
Platelet aggregation was performed in a Bio-Data Aggregometer (Bio-Data Corporation, Horsham, PA, USA) according to Born’s method and quantified by the light transmission reached within 6 min at 37 °C. Briefly, washed platelets (3.0 × 10^8/mL) were pre-incubated for 3 min at 37 °C with saline, compound 4 or 5 before the addition of 0.1 U/mL thrombin. The IC50 values were calculated as above detailed.

PDE1 = experiment: Preliminary PDE selectivity evaluation; format: biochemical; conditions: 10 µM; data not shown
human neutrophils [7] = experiment: Flow cytometric evaluation of ROS production in fMLP-activated neutrophils (DCFH-DA); format: cell-based; conditions: for inhibition at 10 µM: Homo sapiens, Neutrophil, DCFH-DA method, read-out: ROS production inhibition percentage
From the text: Heparinized (heparin 10 U/mL Vister, PfizerItalia, Borgo San Michele, Latina, Italy) venous blood was obtained from healthy male volunteers after written informed consent. Neutrophils were isolated by dextran sedimentation (Dextran 70.000 Plander, Fresenius Kabi Italia, Verona, Italy), and subsequent centrifugation on a Ficoll-Hypaque density gradient (Lympholyte-I from Cedarlane Laboratories Ltd. Hornby, ON, Canada), as described. Contaminating erythrocytes were removed by hypotonic lysis. Neutrophils were washed and resuspended in Hanks’balanced salt solution (HBSS; EuroCLone, Wetherby West, Yorkshire, UK) mixed with Dulbecco’s PBS (EuroClone; HBBS:PBS. Final cell suspensions contained 97% or more neutrophils and more than 98% viable cells, as evaluated by a trypan blue test kit (Sigma Aldrich).
Flow cytometric analysis of neutrophil oxidative metabolism was carried out according to literature method. Briefly, neutrophils, were cultured for 1 h with or without 4d and 5d at different concentration. Thereafter, neutrophils were pre-treated with 2′-7′-dichlorofluorescein-diacetate (DCFH-DA; Sigma, Milan, Italy) ([…]), During the incubation time, DCFH-DA entered into the cells, and it was cleaved by intracellular esterases to give non-fluorescence DCFH trapped within the cells. After washing in PBS, the cells were incubated for 15 min at room temperature in the presence or absence of N-formyl-L-methionin-L-leucyl-L-phenylalanine (fMLP; Sigma, Milan, Italy) ([…]) for 30 min at 37 °C. During this period, intracellular ROS oxidized DCFH to give a green fluorescence […]. The reaction was stopped by keeping the samples on ice before being analyzed by flow cytometry (FC500, Beckman Coulter).

PDE4D3 [8] = conditions: Figure 2; cited from earlier work

T1 sequence (Q08499 1-673 isoform Q08499-2): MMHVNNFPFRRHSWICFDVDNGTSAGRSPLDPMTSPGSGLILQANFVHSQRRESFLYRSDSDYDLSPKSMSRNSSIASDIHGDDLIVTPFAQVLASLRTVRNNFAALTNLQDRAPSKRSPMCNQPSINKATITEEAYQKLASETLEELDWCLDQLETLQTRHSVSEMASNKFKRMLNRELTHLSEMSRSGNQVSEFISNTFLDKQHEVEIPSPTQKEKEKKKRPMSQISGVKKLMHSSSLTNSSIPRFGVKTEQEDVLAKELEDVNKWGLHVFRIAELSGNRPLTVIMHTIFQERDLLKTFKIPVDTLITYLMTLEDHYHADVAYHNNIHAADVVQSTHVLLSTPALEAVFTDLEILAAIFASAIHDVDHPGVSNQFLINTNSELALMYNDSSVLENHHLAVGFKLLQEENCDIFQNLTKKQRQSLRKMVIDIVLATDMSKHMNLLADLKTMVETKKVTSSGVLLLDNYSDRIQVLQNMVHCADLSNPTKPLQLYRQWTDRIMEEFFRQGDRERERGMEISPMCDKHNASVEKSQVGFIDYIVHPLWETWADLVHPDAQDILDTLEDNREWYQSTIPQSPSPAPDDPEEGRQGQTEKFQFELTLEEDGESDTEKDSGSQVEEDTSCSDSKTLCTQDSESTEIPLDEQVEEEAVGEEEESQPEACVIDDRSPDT
T2 sequence (Q07343 1-564 isoform Q07343-2): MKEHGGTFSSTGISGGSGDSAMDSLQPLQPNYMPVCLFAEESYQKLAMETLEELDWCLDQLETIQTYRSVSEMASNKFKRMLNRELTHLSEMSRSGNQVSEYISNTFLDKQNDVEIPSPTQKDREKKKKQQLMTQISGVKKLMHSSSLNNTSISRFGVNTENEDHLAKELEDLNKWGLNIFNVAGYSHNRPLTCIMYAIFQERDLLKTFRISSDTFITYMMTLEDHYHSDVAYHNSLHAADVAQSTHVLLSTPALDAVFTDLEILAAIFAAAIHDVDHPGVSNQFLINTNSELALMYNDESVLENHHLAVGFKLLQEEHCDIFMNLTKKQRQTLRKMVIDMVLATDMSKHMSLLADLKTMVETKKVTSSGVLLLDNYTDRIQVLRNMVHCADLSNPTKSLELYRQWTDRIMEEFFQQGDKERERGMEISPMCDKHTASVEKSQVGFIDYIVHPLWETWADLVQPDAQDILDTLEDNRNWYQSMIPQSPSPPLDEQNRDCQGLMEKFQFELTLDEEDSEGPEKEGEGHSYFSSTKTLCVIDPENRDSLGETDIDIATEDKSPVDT
Sequence of PDE2 (O00408 whole entry): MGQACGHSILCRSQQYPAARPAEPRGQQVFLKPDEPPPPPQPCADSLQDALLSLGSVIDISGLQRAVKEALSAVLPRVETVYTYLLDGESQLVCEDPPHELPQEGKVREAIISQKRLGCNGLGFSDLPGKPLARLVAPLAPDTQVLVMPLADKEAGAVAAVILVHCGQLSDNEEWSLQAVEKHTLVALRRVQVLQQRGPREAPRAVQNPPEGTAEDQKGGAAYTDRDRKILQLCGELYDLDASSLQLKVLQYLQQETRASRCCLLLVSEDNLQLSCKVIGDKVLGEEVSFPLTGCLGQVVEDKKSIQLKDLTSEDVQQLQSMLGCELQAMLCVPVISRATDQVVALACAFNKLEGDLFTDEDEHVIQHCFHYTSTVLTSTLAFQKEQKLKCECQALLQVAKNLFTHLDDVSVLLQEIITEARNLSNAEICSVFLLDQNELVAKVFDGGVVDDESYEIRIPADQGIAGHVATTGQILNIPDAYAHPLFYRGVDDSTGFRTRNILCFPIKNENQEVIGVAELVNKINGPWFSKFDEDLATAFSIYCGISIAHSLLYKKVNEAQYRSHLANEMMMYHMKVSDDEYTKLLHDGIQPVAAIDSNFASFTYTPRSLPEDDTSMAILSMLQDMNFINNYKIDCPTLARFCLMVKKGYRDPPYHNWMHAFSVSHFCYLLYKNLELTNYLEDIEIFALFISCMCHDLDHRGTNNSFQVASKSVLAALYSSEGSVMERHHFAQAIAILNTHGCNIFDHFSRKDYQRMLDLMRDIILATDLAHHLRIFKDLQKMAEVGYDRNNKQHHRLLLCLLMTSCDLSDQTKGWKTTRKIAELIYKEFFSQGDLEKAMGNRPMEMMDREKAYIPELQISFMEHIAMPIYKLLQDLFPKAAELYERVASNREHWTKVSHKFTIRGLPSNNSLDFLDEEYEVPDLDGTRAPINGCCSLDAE

| Structure (SMILES) | inhibition at 10 µM (PDE4D3 [1]) [%] | IC50 (PDE4D3 [1]) [µM] | inhibition at 10 µM (PDE4B2) [%] | IC50 (PDE4B2) [µM] | IC50 (human platelets [2]; Homo sapiens, Platelet) [µM] | chemotaxis inhibition (human neutrophils [3]) | cytotoxic action (PI method) (human neutrophils [5]) | IC50 (human platelets [6]) [µM] | inhibition at 10 µM (human neutrophils [7]) [%] | IC50 (PDE4D3 [8]) [µM] | further results |
| --- | --- | --- | --- | --- | --- | --- | --- | --- | --- | --- | --- |
| COc1ccc(/C=N/NC(=O)c2cnn(CC(O)c3ccccc3)c2N)cc1OC1CCCC1 (stereo not drawn) [4d, (E)-5-Amino-N′-(3-(cyclopentyloxy)-4-methoxybenzylidene)-1-(2-hydroxy-2-phenylethyl)-1H-pyrazole-4-carbohydrazide] | > 50 | 1.05 | > 50 | 0.55 | 40 | very low or absent | no cytotoxic action | 29.8 ± 3.7 | 68 |  | inhibition of PDE7 (PDE7): no inhibition; IC50 (human platelets [2]): 38.3 ± 2.8 µM; inhibition of PDE2 (PDE2): no inhibition; inhibition of PDE3 (PDE3): no inhibition; viability at 10 µM [4]: > 95%; inhibition of PDE5 (PDE5): no inhibition; inhibition of PDE1 (PDE1): no inhibition |
| COc1ccc(/C=N/NC(=O)c2cnn3c2NC(c2ccccc2)C3)cc1OC1CCCC1 (stereo not drawn) [5d, (E)-N′-(3-(cyclopentyloxy)-4-methoxybenzylidene)-2-phenyl-2,3-dihydro-1H-imidazo[1,2-b]pyrazole-7-carbohydrazide] | > 50 | 1.22 | > 50 | 0.55 | 70.6 ± 7.4 | very low or absent | no cytotoxic action | 71 ± 6.8 | 63 |  |  |
| COc1ccc(/C=N/OCC(O)CN2CC(C)OC(C)C2)cc1OC1CCCC1 (stereo not drawn) [GEBR-4a] |  |  |  |  |  |  |  |  |  | 2.8 |  |
| COc1ccc(-c2ccn(CC(O)CN3CCOCC3)n2)cc1OC1CCCC1 (stereo not drawn) [GEBR-54] |  |  |  |  |  |  |  |  |  | 7.6 |  |
| NNC(=O)c1cnn(CC(O)c2ccccc2)c1N (stereo not drawn) [compound 7, 5-Amino-1-(2-hydroxy-2-phenylethyl)-1H-pyrazole-4-carbohydrazide] |  |  |  |  |  |  |  |  |  |  | activity towards ROS production in platelets (in words) (human platelets [2]; human platelets, thrombin stimulated): completely inactive; melting point: 183 to 184 °C; activity towards ROS production in neutrophils (in words) (human neutrophils [7]; data not shown): completely inactive |
